The values that follow come from patent publication US11090304B2 (Amgen Inc., priority 2018, dated 2021).

Assay [1] relates to Phosphorylation of ERK1/2 in MIA PaCa-2 cells. Briefly: Phospho-ERK1/2 MSD assay in MIA PaCa-2 cells. The format is cell-based. The following applies: read-out: p-ERK IC50 (2 h; MIA PaCa-2), 2 h compound treatment. In outline: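 MSD electrochemiluminescence readout of phospho-ERK1/2 in whole-cell lysates, IC50 by 4-parameter logistic fit. Compound titrations were applied for 2 or 4 h at 37 °C, 5% CO2, followed by 10 ng/mL EGF stimulation for 10 min before lysis.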

Assay [2] concerns the target GDP-bound KRAS protein (aa 1-169), containing both G12C and C118A amino acid substitutions (Homo sapiens, UniProt P01116, C118A/G12C). The assay is described as follows: Coupled nucleotide exchange assay (SOS-mediated, AlphaScreen). The following applies: 5 min compound pre-incubation. In kind it is biochemical.

Where two headings read alike, the source gives them in different places.

Chain of GDP-bound KRAS protein (aa 1-169), containing both G12C and C118A amino acid substitutions (P01116 1-169 isoform P01116-2 G12C/C118A): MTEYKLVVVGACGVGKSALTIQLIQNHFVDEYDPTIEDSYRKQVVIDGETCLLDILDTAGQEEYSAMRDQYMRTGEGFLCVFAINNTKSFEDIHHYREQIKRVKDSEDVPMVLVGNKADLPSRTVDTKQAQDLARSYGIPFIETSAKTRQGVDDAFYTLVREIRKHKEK

For `C=CC(=O)N1CCN(c2nc(=O)n(-c3c(C)cccc3C(C)C)c3nc(-c4ccccc4F)c(C)cc23)[C@@H](C)C1` (single isomer, unassigned) [Example 102-2], the 50% inhibitory concentration (IC50) in assay [1] (Homo sapiens, MIA PaCa-2, 2 h) came to 211 nM. Also, the “Coupled exchange IC50 (5 min)” value in assay [2] is 0.182 | nda μM.
In the same order, the values of `C=CC(=O)N1CCN(c2nc(=O)n(-c3ccccc3C(C)C)c3cc(-c4ccccc4F)c(Cl)nc23)[C@@H](C)C1` (single isomer, unassigned) [Example 110-2] are 247 nM and 0.071 | nda μM.
The corresponding values for `C=CC(=O)N1CCN(c2nc(=O)n(-c3c(C(C)C)ncnc3N(C)C)c3nc(-c4ccccc4F)c(Cl)cc23)[C@@H](C)C1` (single isomer, unassigned) [Example 140-1] are 47 nM and 0.073 | nda μM.
The corresponding values for `C=CC(=O)N1CCN(c2nc(=O)n(-c3c(C(N)=O)cccc3C(C)C)c3nc(-c4ccccc4F)c(Cl)cc23)[C@@H](C)C1` (single isomer, unassigned) [Example 142-2] are 29 nM and 0.029 | nda μM.
Regarding `C=CC(=O)N1CCN(c2nc(=O)n(-c3c(C)ccnc3C(C)C)c3nc(-c4ccccc4F)c(C)nc23)[C@@H](C)C1` (single isomer, unassigned) [Example 143-1], in assay [1], the IC50 came out at 3540 nM. Also, the “Coupled exchange IC50 (5 min)” value in assay [2] was 2.72 | nda μM.
Take `C=CC(=O)N1CCN(c2nc(=O)n(-c3c(C)ccnc3C(C)C)c3nc(-c4ccccc4F)c(C)nc23)[C@@H](C)C1` (single isomer, unassigned) [Example 143-2]: the IC50 in assay [1] stood at 397 nM. The “Coupled exchange IC50 (5 min)” value in assay [2] is reported as 2.43 | nda μM.
For the molecule `C=CC(=O)N1CCN(c2nc(=O)n(-c3c(N)cccc3C(C)C)c3nc(-c4ccccc4F)c(Cl)cc23)[C@@H](C)C1` (single isomer, unassigned) [Example 155-1], in assay [1] (Homo sapiens, MIA PaCa-2, 2 h), the IC50 was 43 nM. The “Coupled exchange IC50 (5 min)” value in assay [2] was 0.038 | nda μM.
The corresponding values for `C=CC(=O)N1CCN(c2nc(=O)n(-c3c(C)cccc3C(C)C)c3nc(-c4c(C)ccc5[nH]ncc45)c(F)cc23)[C@@H](C)C1` [68-2, 6-fluoro-7-(5-methyl-1H-indazol-4-yl)-1-(2-methyl-6-(2-propanyl)phenyl)-4-((2S)-2-methyl-4-(2-propenoyl)-1-piperazinyl)pyrido[2,3-d]pyrimidin-2(1H)-one] are 999 nM and 0.947 | nda μM.
In the same order, the values of `C=CC(=O)N1CCN(c2nc(=O)n(-c3c(C)cc(CO)cc3C(C)C)c3nc(-c4ccccc4F)c(Cl)cc23)[C@@H](C)C1` [80-2, 6-chloro-7-(2-fluorophenyl)-1-(4-(hydroxymethyl)-2-methyl-6-(2-propanyl)phenyl)-4-((2S)-2-methyl-4-(2-propenoyl)-1-piperazinyl) pyrido[2,3-d] pyrimidin-2(1H)-one] are 97 nM and 0.11 | nda μM.
The corresponding values for `C=CC(=O)N1CCN(c2nc(=O)n(-c3ncccc3CC)c3nc(-c4ccccc4F)c(Cl)cc23)[C@@H](C)C1` [Example 54-15, 6-chloro-1-(3-ethyl-2~ pyridinyl)-7-(2-fluorophenyl)-4-((2S)-2-methyl-4-(2-propenoyl)-1-piperazinyl) pyrido[2,3-d]pyrimidin-2(1H)-one] are 347 nM and 0.564 | nda μM.
`C=CC(=O)N1CCN(c2nc(=O)n(-c3ncccc3CC)c3nc(-c4c(O)cccc4F)c(Cl)cc23)[C@@H](C)C1` [Example 54-16, 6-chloro-1-(3-ethyl-2-pyridinyl)-7-(2-fluoro-6-hydroxyphenyl)-4-((2S)-2-methyl-4-(2-propenoyl)-1-piperazinyl) pyrido[2,3-d]pyrimidin-2(1H)-one]: the IC50 in assay [1] (Homo sapiens, MIA PaCa-2, 2 h) stood at 149 nM. Besides, the “Coupled exchange IC50 (5 min)” value in assay [2] was 0.149 | nda μM.
With `C=CC(=O)N1CCN(c2nc(=O)n(-c3c(C(C)C)ccnc3C)c3nc(-c4ccccc4F)c(Cl)cc23)[C@@H](C)C1` [Example 54-18, 6-chloro-7-(2-fluorophenyl)-1-(2-methyl-4-(2-propanyl)-3-pyridinyl)-4-((2S)-2-methyl-4-(2-propenoyl)-1-piperazinyl) pyrido[2,3-d]pyrimidin-2(1H)-one], the IC50 in assay [1] (Homo sapiens, MIA PaCa-2, 2 h) was 81 nM. Moreover, in assay [2], the “Coupled exchange IC50 (5 min)” value is listed as 0.087 | nda μM.
In the same order, the values of `C=CC(=O)N1CCN(c2nc(=O)n(-c3nccnc3C(C)C)c3nc(-c4c(O)cccc4F)c(Cl)cc23)[C@@H](C)C1` [Example 54-21, 6-chloro-7-(2-fluoro-6-hydroxyphenyl)-4-((2S)-2-methyl-4-(2-propenoyl)-1-piperazinyl)-1-(3-(2-propanyl)-2-pyrazinyl) pyrido[2,3-d]pyrimidin-2(1H)-one] are 2480 nM and 1.67 | nda μM.
`C=CC(=O)N1CCN(c2nc(=O)n(-c3ccnn3C(C)C)c3nc(-c4c(O)cccc4F)c(Cl)cc23)[C@@H](C)C1` [Example 54-25, 6-chloro-7-(2-fluoro-6-hydroxy-phenyl)-4-((2S)-2-methyl-4-(2-propenoyl)-1-piperazinyl)-1-(1-(2-propanyl)-1H-pyrazol-5-yl)pyrido[2,3-d]pyrimidin-2(1H)-one]: the IC50 was 218 nM in assay [1] (Homo sapiens, MIA PaCa-2, 2 h) and 164 nM in assay [2] (read-out: Coupled exchange IC50 (5 min)).
For `C=CC(=O)N1CCN(c2nc(=O)n(-c3cncnc3C(C)C)c3nc(-c4c(O)cccc4F)c(Cl)cc23)[C@@H](C)C1` [Example 54-26, 6-chloro-7-(2-fluoro-6-hydroxy-phenyl)-4-((2S)-2-methyl-4-(2-propenoyl)-1-piperazinyl)-1-(4-(2-propanyl)-5-pyrimidinyl) pyrido[2,3-d]pyrimidin-2(1H)-one], the IC50 in assay [1] (Homo sapiens, MIA PaCa-2, 2 h) was 220 nM. Further, the “Coupled exchange IC50 (5 min)” value in assay [2] is 0.105 | nda μM.
Consider `C=CC(=O)N1CCN(c2nc(=O)n(-c3ccnn3C3CCC3)c3nc(-c4c(O)cccc4F)c(Cl)cc23)[C@@H](C)C1` [Example 54-28, 6~chloro-1-(1-cyclobutyl-1H-pyrazol-5-yl)-7-(2-fluoro-6-hydroxyphenyl)-4-((2S)-2-methyl-4-(2-propenoyl)-1-piperazinyl) pyrido[2,3-d]pyrimidin-2(1H)-one], for which the IC50 in assay [1] (Homo sapiens, MIA PaCa-2, 2 h) worked out at 245 nM. In assay [2], the “Coupled exchange IC50 (5 min)” value is reported as 0.19 | nda μM.
Take `C=CC(=O)N1CCN(c2nc(=O)n(-c3ccnn3C3CCC3)c3nc(-c4ccccc4F)c(Cl)cc23)[C@@H](C)C1` [Example 54-29, 6-chloro-1-(1-cyclobutyl-1H-pyrazol-5-yl)-7-(2-fluorophenyl)-4-((2S)-2-methyl-4-(2-propenoyl)-1-piperazinyl) pyrido[2,3-d]pyrimidin-2(1H)-one]: the IC50 in assay [1] (Homo sapiens, MIA PaCa-2, 2 h) is 717 nM. The “Coupled exchange IC50 (5 min)” value in assay [2] is given as 0.406 | nda μM.
For `C=CC(=O)N1CCN(c2nc(=O)n(-c3ccccc3CC)c3nc(-c4c(O)cccc4F)c(Cl)cc23)[C@@H](C)C1` [Example 54-34, 6-chloro-1-(2-ethylphenyl)-7-(2-fluoro-6-hydroxyphenyl)-4-((2S)-2-methyl-4-(2-propenoyl)-1-piperazinyl) pyrido[2,3-d]pyrimidin-2(1H)-one], in assay [1] (Homo sapiens, MIA PaCa-2, 2 h), the IC50 turned out to be 97 nM. For the same molecule, the “Coupled exchange IC50 (5 min)” value in assay [2] was 0.325 | nda μM.
In the same order, the values of `C=CC(=O)N1CCN(c2nc(=O)n(-c3ccccc3Cl)c3nc(-c4c(O)cccc4F)c(Cl)cc23)[C@@H](C)C1` [Example 54-35, 6-chloro-1-(2-chlorophenyl)-7-(2-fluoro-6-hydroxyphenyl)-4-((2S)-2-methyl-4-(2-propenoyl)-1-piperazinyl) pyrido[2,3-d]pyrimidin-2(1H)-one] are 383 nM and 0.582 | nda μM.
`C=CC(=O)N1CCN(c2nc(=O)n(-c3ccncc3C(C)C)c3nc(-c4c(O)cccc4F)c(Cl)cc23)[C@@H](C)C1` [Example 54-36, 6-chloro-7-(2-fluoro-6-hydroxy-phenyl)-4-((2S)-2-methyl-4-(2-propenoyl)-1-piperazinyl)-1-(3-(2-propanyl)-4-pyridinyl) pyrido[2,3-d]pyrimidin-2(1H)-one]: the IC50 in assay [1] (Homo sapiens, MIA PaCa-2, 2 h) came out at 158 nM. In assay [2], the “Coupled exchange IC50 (5 min)” value is 0.149 | nda μM.
The corresponding values for `C=CC(=O)N1CCN(c2nc(=O)n(-c3nccnc3CC)c3nc(-c4c(O)cccc4F)c(Cl)cc23)[C@@H](C)C1` [Example 54-37, 6-chloro-1-(3-ethyl-2-pyrazinyl)-7-(2-fluoro-6-hydroxy-phenyl)-4-((2S)-2-methyl-4-(2-propenoyl)-1-piperazinyl) pyrido[2,3-d]pyrimidin-2(1H)-one] are 227 nM and 0.304 | nda μM.
In the same order, the values of `C=CC(=O)N1CCN(c2nc(=O)n(-c3nccnc3CC)c3nc(-c4ccccc4F)c(Cl)cc23)[C@@H](C)C1` [Example 54-38, 6-chloro-1-(3-ethyl-2-pyrazinyl)-7-(2-fluorophenyl)-4-((2S)-2-methyl-4-(2-propenoyl)-1-piperazinyl) pyrido[2,3-d]pyrimidin-2(1H)-one] are 297 nM and 0.651 | nda μM.
In the same order, the values of `C=CC(=O)N1CCN(c2nc(=O)n(-c3ccccc3N(C)C)c3nc(-c4c(O)cccc4F)c(Cl)cc23)[C@@H](C)C1` [Example 54-42, 6-chloro-1-(2-(dimethylamino)phenyl)-7-(2-fluoro-6-hydroxyphenyl)-4-((2S)-2-methyl-4-(2-propenoyl)-1-piperazinyl) pyrido[2,3-d]pyrimidin-2(1H)-one] are 322 nM and 0.79 | nda μM.

Usually IC50 stands for the point on the concentration scale where inhibition reaches its midpoint.
